Experimental data published in ChEMBL document CHEMBL4229455, “Synthesis and anticancer activity of novel bisindolylhydroxymaleimide derivatives with potent GSK-3 kinase inhibition” (Bioorg Med Chem, 2018).
pIC50: −log10 of the molar value.

Legend:
[1] = target: Cyclin-dependent kinase 5/CDK5 activator 1 (Homo sapiens, UniProt Q00535); assay: Inhibition of recombinant full length human CDK5/p25 expressed in bacteria using histone H1 as substrate in presence of [gamma-33P]ATP
[2] = tested on: RXF 393; assay: Cytotoxicity against human RXF393 cells assessed as cell growth at 10 uM after 48 hrs by SRB assay relative to control; format: functional; conditions: RXF 393, 48 h, read-out: Activity
[3] = tested on: SK-OV-3; assay: Cytotoxicity against human SKOV3 cells assessed as cell growth at 10 uM after 48 hrs by SRB assay relative to control; format: functional; conditions: SK-OV-3, 48 h, read-out: Activity
[4] = tested on: NCI-H23; assay: Cytotoxicity against human NCI-H23 cells assessed as cell growth at 10 uM after 48 hrs by SRB assay relative to control; format: functional; conditions: NCI-H23, 48 h, read-out: Activity
[5] = tested on: SN12C; assay: Cytotoxicity against human SN12C cells assessed as cell growth at 10 uM after 48 hrs by SRB assay relative to control; format: functional; conditions: read-out: Activity
[6] = tested on: A498; assay: Cytotoxicity against human A498 cells assessed as cell growth at 10 uM after 48 hrs by SRB assay relative to control; format: functional; conditions: A498, 48 h, read-out: Activity
[7] = target: T1, Aurora kinase B (Homo sapiens, UniProt Q96GD4); assay: Inhibition of recombinant full length human aurora B expressed in baculovirus infected Sf9 insect cells assessed as residual activity at 10 uM using MBP as substrate in presence of [gamma-33P]ATP
T1 sequence (Q96GD4 whole entry): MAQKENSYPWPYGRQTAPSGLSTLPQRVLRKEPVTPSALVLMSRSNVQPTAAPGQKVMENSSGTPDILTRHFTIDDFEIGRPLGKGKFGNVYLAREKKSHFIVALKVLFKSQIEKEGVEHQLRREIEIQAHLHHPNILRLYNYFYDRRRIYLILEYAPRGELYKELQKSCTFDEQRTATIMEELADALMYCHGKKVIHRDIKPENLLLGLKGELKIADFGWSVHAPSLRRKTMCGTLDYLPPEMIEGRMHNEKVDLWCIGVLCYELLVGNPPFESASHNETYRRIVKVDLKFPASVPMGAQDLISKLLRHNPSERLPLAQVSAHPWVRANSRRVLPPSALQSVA

[8] = tested on: TK-10; assay: Cytotoxicity against human TK10 cells assessed as cell growth at 10 uM after 48 hrs by SRB assay relative to control; format: functional; conditions: TK-10, 48 h, read-out: Activity
[9] = tested on: DU-145; assay: Cytotoxicity against human DU145 cells assessed as cell growth at 10 uM after 48 hrs by SRB assay relative to control; format: functional; conditions: DU-145, 48 h, read-out: Activity
[10] = target: CDK9/cyclin T1 (Homo sapiens) (UniProt O60563+P50750); assay: Inhibition of recombinant full length human CDK9/cyclin T expressed in baculovirus infected Sf9 insect cells assessed as residual activity at 10 uM using YSPTSPSYSPTSPSYSPTSPSKKKK as substrate in presence of [gamma-33P]ATP
[11] = tested on: U-251; assay: Cytotoxicity against human U251 cells assessed as cell growth at 10 uM after 48 hrs by SRB assay relative to control; format: functional; conditions: U-251, 48 h, read-out: Activity
[12] = tested on: MCF7; assay: Cytotoxicity against human MCF7 cells assessed as cell growth at 10 uM after 48 hrs by SRB assay relative to control; format: functional; conditions: MCF7, 48 h, read-out: Activity
[13] = tested on: ACHN; assay: Cytotoxicity against human ACHN cells assessed as cell growth at 10 uM after 48 hrs by SRB assay relative to control; format: functional; conditions: read-out: Activity
[14] = tested on: HL-60(TB); assay: Cytotoxicity against human HL-60(TB) cells assessed as cell growth at 10 uM after 48 hrs by SRB assay relative to control; format: functional; conditions: HL-60, 48 h, read-out: Activity
[15] = Inhibition of domestic porcine brain full length […] using RRKHAAIGSpAYSITA as substrate in presence of [gamma-33P]ATP; set-up: species or system Sus scrofa domesticus
[16] = tested on: SK-MEL-28; assay: Cytotoxicity against human SK-MEL-28 cells assessed as cell growth at 10 uM after 48 hrs by SRB assay relative to control; format: functional; conditions: SK-MEL-28, 48 h, read-out: Activity
[17] = target: CDK2/Cyclin A2 (Homo sapiens, UniProt P24941); assay: Inhibition of full length human CDK2/cyclin A using histone H1 as substrate in presence of [gamma-33P]ATP; format: protein-complex assay
[18] = tested on: HT-29; assay: Cytotoxicity against human HT-29 cells assessed as cell growth at 10 uM after 48 hrs by SRB assay relative to control; format: functional; conditions: HT-29, 48 h, read-out: Activity
[19] = target: T1, Aurora kinase B; assay: Inhibition of recombinant full length human aurora B expressed in baculovirus infected Sf9 insect cells using MBP as substrate in presence of [gamma-33P]ATP
[20] = tested on: COLO 205; assay: Cytotoxicity against human COLO205 cells assessed as cell growth at 10 uM after 48 hrs by SRB assay relative to control; format: functional; conditions: COLO 205, 48 h, read-out: Activity
[21] = tested on: OVCAR-8; assay: Cytotoxicity against human OVCAR8 cells assessed as cell growth at 10 uM after 48 hrs by SRB assay relative to control; format: functional; conditions: OVCAR-8, 48 h, read-out: Activity
[22] = tested on: UO-31; assay: Cytotoxicity against human UO31 cells assessed as cell growth at 10 uM after 48 hrs by SRB assay relative to control; format: functional; conditions: UO-31, 48 h, read-out: Activity
[23] = target: Dual specificity tyrosine-phosphorylation-regulated kinase 1A (Rattus norvegicus, UniProt Q63470); assay: Inhibition of recombinant rat DYRK1A kinase domain expressed in bacteria using KKISGRLSPIMTEQ as substrate in presence of [gamma-33P]ATP
[24] = target: Receptor-interacting serine/threonine-protein kinase 3 (Homo sapiens, UniProt Q9Y572); assay: Inhibition of recombinant full length human RIPK3 expressed in baculovirus infected Sf9 insect cells assessed as residual activity at 10 uM using MBP as substrate in presence of [gamma-33P]ATP
Chain of Receptor-interacting serine/threonine-protein kinase 3 (Q9Y572 whole entry, looked up): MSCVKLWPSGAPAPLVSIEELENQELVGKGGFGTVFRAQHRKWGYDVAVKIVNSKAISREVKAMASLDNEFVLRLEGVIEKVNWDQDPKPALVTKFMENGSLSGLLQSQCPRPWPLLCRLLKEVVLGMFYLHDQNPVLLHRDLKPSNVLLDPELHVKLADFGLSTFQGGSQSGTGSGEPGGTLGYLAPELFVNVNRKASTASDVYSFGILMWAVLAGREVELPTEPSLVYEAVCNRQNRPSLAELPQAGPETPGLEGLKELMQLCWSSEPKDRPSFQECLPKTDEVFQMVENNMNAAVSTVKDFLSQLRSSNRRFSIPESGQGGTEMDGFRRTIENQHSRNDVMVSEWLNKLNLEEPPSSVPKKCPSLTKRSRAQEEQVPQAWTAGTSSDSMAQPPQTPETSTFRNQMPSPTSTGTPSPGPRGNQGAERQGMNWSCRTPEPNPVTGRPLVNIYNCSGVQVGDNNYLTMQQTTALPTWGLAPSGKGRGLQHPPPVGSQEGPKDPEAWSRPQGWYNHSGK

[25] = tested on: CCRF-CEM; assay: Cytotoxicity against human CCRF-CEM cells assessed as cell growth at 10 uM after 48 hrs by SRB assay relative to control; format: functional; conditions: read-out: Activity
[26] = target: Serine/threonine-protein kinase pim-1 (Homo sapiens, UniProt P11309); assay: Inhibition of recombinant full length human PIM1 expressed in bacteria assessed as residual activity at 10 uM using histone H1 as substrate in presence of [gamma-33P]ATP
Chain of Serine/threonine-protein kinase pim-1 (P11309 whole entry, looked up): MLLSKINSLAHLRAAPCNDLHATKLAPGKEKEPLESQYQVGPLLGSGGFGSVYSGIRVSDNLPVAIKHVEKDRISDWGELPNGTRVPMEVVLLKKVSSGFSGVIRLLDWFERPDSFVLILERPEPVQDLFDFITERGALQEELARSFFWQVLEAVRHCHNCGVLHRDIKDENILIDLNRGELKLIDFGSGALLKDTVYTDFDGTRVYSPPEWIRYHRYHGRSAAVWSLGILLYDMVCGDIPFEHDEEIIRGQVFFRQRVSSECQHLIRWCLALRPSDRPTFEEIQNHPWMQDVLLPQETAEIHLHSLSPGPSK

[27] = tested on: NCI/ADR-RES; assay: Cytotoxicity against human NCI-ADR-RES cells assessed as cell growth at 10 uM after 48 hrs by SRB assay relative to control; format: functional; conditions: read-out: Activity
[28] = tested on: K562; assay: Cytotoxicity against human K562 cells assessed as cell growth at 10 uM after 48 hrs by SRB assay relative to control; format: functional; conditions: K562, 48 h, read-out: Activity
[29] = organism: Sus scrofa domesticus; assay: Inhibition of domestic porcine brain full length […] assessed as residual activity at 10 uM using RRKHAAIGSpAYSITA as substrate in presence of [gamma-33P]ATP
[30] = tested on: NCI-H460; assay: Cytotoxicity against human NCI-H460 cells assessed as cell growth at 10 uM after 48 hrs by SRB assay relative to control; format: functional; conditions: NCI-H460, 48 h, read-out: Activity
[31] = tested on: SF-539; assay: Cytotoxicity against human SF539 cells assessed as cell growth at 10 uM after 48 hrs by SRB assay relative to control; format: functional; conditions: SF-539, 48 h, read-out: Activity
[32] = tested on: NCI-H322M; assay: Cytotoxicity against human NCI-H322M cells assessed as cell growth at 10 uM after 48 hrs by SRB assay relative to control; format: functional; conditions: read-out: Activity
[33] = target: Glycogen synthase kinase-3 (Sus scrofa, UniProt B2LUN4+I6LNT8); assay: Inhibition of domestic porcine brain full length GSK-3alpha/beta using GS-1 as substrate in presence of [gamma-33P]ATP; set-up: species or system Sus scrofa domesticus

Chain of Cyclin-dependent kinase 5/CDK5 activator 1 (Q00535 whole entry): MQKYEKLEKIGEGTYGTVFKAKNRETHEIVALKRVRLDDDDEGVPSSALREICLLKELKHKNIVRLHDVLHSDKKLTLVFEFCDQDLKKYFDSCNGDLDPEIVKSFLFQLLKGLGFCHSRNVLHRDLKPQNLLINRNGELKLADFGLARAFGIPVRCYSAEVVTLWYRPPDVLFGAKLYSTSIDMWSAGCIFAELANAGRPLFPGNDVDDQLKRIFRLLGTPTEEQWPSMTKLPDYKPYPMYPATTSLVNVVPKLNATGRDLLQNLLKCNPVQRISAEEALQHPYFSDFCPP
Chain of Cyclin-dependent kinase 5/CDK5 activator 1 (Q15078 whole entry, further chain): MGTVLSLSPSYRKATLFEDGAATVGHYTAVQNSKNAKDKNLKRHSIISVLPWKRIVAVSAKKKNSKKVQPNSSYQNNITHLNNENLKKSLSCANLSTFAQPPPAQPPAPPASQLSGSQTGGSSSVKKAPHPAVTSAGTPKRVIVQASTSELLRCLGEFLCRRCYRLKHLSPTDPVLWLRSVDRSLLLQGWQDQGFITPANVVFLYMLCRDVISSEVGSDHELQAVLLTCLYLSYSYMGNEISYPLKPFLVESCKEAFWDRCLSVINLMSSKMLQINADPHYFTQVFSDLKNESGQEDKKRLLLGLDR

Row | Compound | pIC50 [1] | growth at 10 µM [2] [%] | growth at 10 µM [3] [%] | growth at 10 µM [5] [%] | growth at 10 µM [6] [%] | Activity [7] [%] | growth at 10 µM [8] [%] | growth at 10 µM [9] [%] | Activity [10] [%] | growth at 10 µM [11] [%] | growth at 10 µM [12] [%] | growth at 10 µM [13] [%] | pIC50 [15] | growth at 10 µM [16] [%] | pIC50 [17] | growth at 10 µM [18] [%] | pIC50 [19] | growth at 10 µM [20] [%] | growth at 10 µM [21] [%] | growth at 10 µM [22] [%] | other results
1 | Cn1cc(C2=C(c3cn(CCCCCC#N)c4ccccc34)C(=O)N(O)C2=O)c2ccccc21 | < 5.00 | 90 | 86.5 | 102 | 76.7 | 71 | 116 | 106 | 17 | 102 | 77.7 | 97.4 | < 5.00 | 109 | < 5.00 | 90.1 | < 5.00 | 92.6 | 100 | 50.8 | growth at 10 µM [4]: 88.1%; growth at 10 µM [14]: 124%; pIC50 [23]: 5.30; Activity [24]: 105%; growth at 10 µM [25]: 83.3%; Activity [26]: 52%; growth at 10 µM [27]: 102%; growth at 10 µM [28]: 78.8%; Activity [29]: 88%; growth at 10 µM [30]: 99.3%; growth at 10 µM [31]: 98.4%; growth at 10 µM [32]: 98%; IC50 [33]: 0.27 µM
2 | N#CCCCCCn1cc(C2=C(c3cn(CCCCCC#N)c4ccccc34)C(=O)NC2=O)c2ccccc21 | < 5.00 | 62.1 | 57 | 87.7 | 54.5 | 83 | 101 | 100 | 9 | 83.8 | 48.9 | 87 | < 5.00 | 133 | 5.60 | 84.4 | < 5.00 | 73.8 | 89.9 | 72.7 | growth at 10 µM [4]: 97.1%; pIC50 [23]: 6.21; Activity [24]: 100%; growth at 10 µM [25]: 73.5%; Activity [26]: 54%; growth at 10 µM [27]: 79%; Activity [29]: 108%; growth at 10 µM [30]: 86.8%; growth at 10 µM [31]: 53.7%; growth at 10 µM [32]: 103%; IC50 [33]: 0.12 µM
3 | Cn1cc(C2=C(c3cn(C)c4ccccc34)C(=O)N(O)C2=O)c2ccccc21 | < 5.00 | 82.8 | 101 | 94.5 | 85.8 | 84 | 118 | 123 | 38 | 91.4 | 86.2 | 101 | < 5.00 | 107 | < 5.00 | 102 | < 5.00 | 104 | 96.5 | 74.2 | growth at 10 µM [14]: 87.1%; pIC50 [23]: < 5.00; Activity [24]: 100%; Activity [26]: 33%; growth at 10 µM [27]: 102%; growth at 10 µM [28]: 100%; Activity [29]: 104%; growth at 10 µM [30]: 99.5%; growth at 10 µM [31]: 107%; growth at 10 µM [32]: 103%; IC50 [33]: 3 µM
